Structures are written as SMILES.

The values that follow come from patent publication US20220183952A1, “FORMULATION FOR THE TOPICAL TREATMENT OF THE SKIN AND RELATED USE” (SVAS BIOSANA SPA, priority 2018, published 2022).

Assay [1] is described as follows: FRAP (Ferric reducing antioxidant power) assay.
Assay [2] is described as follows: TEAC (Trolox equivalent antioxidant capacity) assay.
Assay [3] is described as follows: Superoxide radical scavenging activity.

Consider `Cc1cc(C(C)(C)C)c(O)c(C(C)(C)C)c1` [BHT, hydroxytoluene butylate], for which, in assay [1], the FRAP worked out at 0.416 ± 0.020 Mmol Fe2+/g. For the same molecule, the TEAC in assay [2] was determined as 0.467 ± 0.005 mmol TE/g.
In turn, `O=C1O[C@H]([C@@H](O)CO)C(O)=C1O` [Vitamin C, vitamin C] showed an FRAP in assay [1] of 6.57 ± 1.00 Mmol Fe2+/g. Moreover, in assay [2], the TEAC amounted to 7.23 ± 0.28 mmol TE/g. In addition, in assay [3], the “Superoxide radical scavenging activity, EC50” value is 0.06 ± 0.00 mg/mL.
